Activity calls are given as the source filed them. No cut-off for these calls is given here.
How the values were obtained:
[1] = system: MIA PaCa-2; test: Antiproliferative activity against human MIAPaCa2 cells assessed as reduction in cell viability at IC50 after 24 hrs by calcein AM staining based confocal microscopy; format: functional
[2] = system: PC-3; test: Antiproliferative activity against human PC3 cells after 48 hrs by MTT assay; format: functional, cell-based; conditions: PC-3, 48 h
[3] = system: A549; test: Antiproliferative activity against human A549 cells after 48 hrs by MTT assay; format: functional, cell-based; conditions: A549, 48 h
[4] = system: MIA PaCa-2; test: Antiproliferative activity against human MIAPaCa2 cells after 48 hrs by MTT assay; format: functional, cell-based; conditions: MIA PaCa-2, 48 h
[5] = system: A-375; test: Antiproliferative activity against human A375 cells after 48 hrs by MTT assay; format: functional, cell-based; conditions: A-375, 48 h
[6] = system: MIA PaCa-2; test: Antiproliferative activity against human MIAPaCa2 cells assessed as reduction in colony formation measured after 10 to 14 days by crystal violet staining based microscopic method; format: functional, cell-based
[7] = system: A-375; test: Cell cycle arrest in human A375 cells assessed as accumulation at sub-G0/G1 phase at IC50 after 48 hrs by propidium iodide staining based flow cytometry; format: functional
[8] = system: A-375; test: Cell cycle arrest in human A375 cells assessed as accumulation at G2/M phase at IC50 after 48 hrs by propidium iodide staining based flow cytometry; format: functional
[9] = system: MIA PaCa-2; test: Cell cycle arrest in human MIAPaCa2 cells assessed as accumulation at G2/M phase at IC50 after 48 hrs by propidium iodide staining based flow cytometry; format: functional
[10] = system: Caco-2; test: Antiproliferative activity against human Caco2 cells after 48 hrs by MTT assay; format: functional, cell-based; conditions: Caco-2, 48 h
[11] = system: MIA PaCa-2; test: Cell cycle arrest in human MIAPaCa2 cells assessed as decrease in G1 population at IC50 after 48 hrs by propidium iodide staining based flow cytometry; format: functional
[12] = system: A-375; test: Antiproliferative activity against human A375 cells assessed as reduction in cell viability at IC50 after 24 hrs by calcein AM staining based confocal microscopy; format: functional
[13] = system: A-375; test: Cell cycle arrest in human A375 cells assessed as decrease in G1 population at IC50 after 48 hrs by propidium iodide staining based flow cytometry; format: functional
[14] = Antiproliferative activity against human HPDEC after 48 hrs by MTT assay; format: cell-based
[15] = system: A-375; test: Antiproliferative activity against human A375 cells assessed as reduction in colony formation measured after 10 to 14 days by crystal violet staining based microscopic method; format: functional, cell-based
[16] = system: MIA PaCa-2; test: Cell cycle arrest in human MIAPaCa2 cells assessed as accumulation at sub-G0/G1 phase at IC50 after 48 hrs by propidium iodide staining based flow cytometry; format: functional

O=C(c1ccc([N+](=O)[O-])cc1)c1c(-c2ccccc2)sc2c1CCCCC2
Activity [1]: Active
IC50 [2]: 40.1 µM
IC50 [3]: 5.39 µM
IC50 [4]: 5.35 µM
IC50 [5]: 1.07 µM
Activity [6]: Active
Activity [7]: Active
Activity [8]: Active
Activity [9]: Active
IC50 [10]: 6.1 µM
Activity [11]: Active
Activity [12]: Active
Activity [13]: Active
IC50 [14]: > 50 µM
Activity [15]: Active
Activity [16]: Active

Cc1sc(C#Cc2ccccc2)c(C(=O)c2ccc([N+](=O)[O-])cc2)c1C
IC50 [2]: 33.4 µM
IC50 [3]: 19 µM
IC50 [4]: 21.9 µM
IC50 [5]: 21.2 µM
IC50 [10]: 25.1 µM

Cc1ccc(C#Cc2sc3c(c2C(=O)c2ccccc2)CCCC3)cc1
IC50 [2]: > 100 µM
IC50 [3]: > 100 µM
IC50 [4]: > 100 µM
IC50 [5]: > 100 µM
IC50 [10]: > 100 µM

Cc1ccc(C(=O)c2c(C#Cc3ccccc3)sc(C)c2C)cc1
IC50 [2]: 25.4 µM
IC50 [3]: 39.5 µM
IC50 [4]: > 100 µM
IC50 [5]: 43.2 µM
IC50 [10]: > 100 µM

Cc1ccc(C(=O)c2c(C#Cc3ccccc3)sc3c2CCCC3)cc1
IC50 [2]: 20.4 µM
IC50 [3]: 11.3 µM
IC50 [4]: 17.2 µM
IC50 [5]: 10.1 µM
IC50 [10]: 10.4 µM

Cc1ccc(C#Cc2sc(C)c(C)c2C(=O)c2ccccc2)cc1
IC50 [2]: 51.4 µM
IC50 [3]: > 100 µM
IC50 [4]: 69.8 µM
IC50 [5]: > 100 µM
IC50 [10]: > 100 µM

Cc1sc(-c2ccccc2)c(C(=O)c2ccc([N+](=O)[O-])cc2)c1C
IC50 [2]: > 100 µM
IC50 [3]: 31 µM
IC50 [4]: 23.7 µM
IC50 [5]: > 100 µM
IC50 [10]: 64.7 µM

Cc1sc(C#Cc2ccccc2)c(C(=O)c2ccccc2)c1C
IC50 [2]: 31.5 µM
IC50 [3]: 24 µM
IC50 [4]: 31.2 µM
IC50 [5]: 28 µM
IC50 [10]: 34.2 µM

Cc1ccc(C(=O)c2c(-c3ccccc3)sc(C)c2C)cc1
IC50 [2]: 26 µM
IC50 [3]: > 100 µM
IC50 [4]: > 100 µM
IC50 [5]: 51.2 µM
IC50 [10]: > 100 µM

Cc1sc(-c2ccccc2)c(C(=O)c2ccccc2)c1C
IC50 [2]: 39.5 µM
IC50 [3]: 21.9 µM
IC50 [4]: > 100 µM
IC50 [5]: 31.1 µM
IC50 [10]: 38 µM

CC(=O)O[C@H]1C(=O)[C@@]2(C)[C@H]([C@H](OC(=O)c3ccccc3)[C@]3(O)C[C@H](OC(=O)[C@H](O)[C@@H](NC(=O)c4ccccc4)c4ccccc4)C(C)=C1C3(C)C)[C@]1(OC(C)=O)CO[C@@H]1C[C@@H]2O [PACLITAXEL]
IC50 [2]: 1.9 µM
IC50 [3]: 0.4 µM
IC50 [4]: 2.5 µM
IC50 [5]: 0.68 µM
IC50 [10]: 2.8 µM

O=C(c1ccc([N+](=O)[O-])cc1)c1c(C#Cc2ccccc2)sc2c1CCCC2
Activity [1]: Active
IC50 [2]: 12.3 µM
IC50 [3]: 2.8 µM
IC50 [4]: 3 µM
IC50 [5]: 0.81 µM
Activity [6]: Active
Activity [7]: Active
Activity [8]: Active
Activity [9]: Active
IC50 [10]: 4.52 µM
Activity [11]: Active
Activity [12]: Active
Activity [13]: Active
IC50 [14]: > 50 µM
Activity [15]: Active
Activity [16]: Active

COc1cc(C(=O)c2c(C#Cc3ccccc3)sc(C)c2C)cc(OC)c1OC
IC50 [2]: 6.49 µM
IC50 [3]: 6.51 µM
IC50 [4]: 4.32 µM
IC50 [5]: 1.17 µM
IC50 [10]: 7.49 µM
IC50 [14]: 36.1 µM

COc1ccc(C(=O)c2c(C#Cc3ccccc3)sc3c2CCCC3)cc1
IC50 [2]: 14.5 µM
IC50 [3]: 8.14 µM
IC50 [4]: 35.2 µM
IC50 [5]: 1.9 µM
IC50 [10]: 16.8 µM
IC50 [14]: 35.6 µM

COc1ccc(C(=O)c2c(C#Cc3ccccc3)sc(C)c2C)cc1
IC50 [2]: 21.4 µM
IC50 [3]: 13.6 µM
IC50 [4]: 29.4 µM
IC50 [5]: 9.35 µM
IC50 [10]: 18.3 µM

COc1ccc(C(=O)c2c(-c3ccccc3)sc3c2CCCC3)cc1
IC50 [2]: 23.4 µM
IC50 [3]: 9.42 µM
IC50 [4]: 8.84 µM
IC50 [5]: 5.34 µM
IC50 [10]: 18.6 µM
IC50 [14]: 21.4 µM

COc1cc(C(=O)c2c(C#Cc3ccccc3)sc3c2CCCC3)cc(OC)c1OC
IC50 [2]: 15.5 µM
IC50 [3]: 12.9 µM
IC50 [4]: 5.08 µM
IC50 [5]: 3.88 µM
IC50 [10]: 8.26 µM
IC50 [14]: > 50 µM

Cc1ccc(C#Cc2sc(C)c(C)c2C(=O)c2ccc(C)cc2)cc1
IC50 [2]: > 100 µM
IC50 [3]: 45.3 µM
IC50 [4]: > 100 µM
IC50 [5]: > 100 µM
IC50 [10]: > 100 µM

O=C(c1ccccc1)c1c(C#Cc2ccccc2)sc2c1CCCC2
IC50 [2]: 23.1 µM
IC50 [3]: 20.2 µM
IC50 [4]: 8.48 µM
IC50 [5]: 4.63 µM
IC50 [10]: 14.8 µM
IC50 [14]: 18.9 µM

O=C(c1ccccc1)c1c(-c2ccccc2)sc2c1CCCCC2
IC50 [2]: 22.1 µM
IC50 [3]: 15.8 µM
IC50 [4]: 12 µM
IC50 [5]: 7.72 µM
IC50 [10]: 18.1 µM
IC50 [14]: 14.6 µM

Cc1ccc(C(=O)c2c(-c3ccccc3)sc3c2CCCCC3)cc1
IC50 [2]: 23.4 µM
IC50 [3]: 6.28 µM
IC50 [4]: 24.6 µM
IC50 [5]: 3.71 µM
IC50 [10]: 15.7 µM
IC50 [14]: 25.8 µM

O=C(c1ccccc1)c1c(-c2ccccc2)sc2c1CCCC2
IC50 [2]: 23.8 µM
IC50 [3]: 14 µM
IC50 [4]: 18.2 µM
IC50 [5]: 16.3 µM
IC50 [10]: 20.4 µM

Cc1ccc(C#Cc2sc3c(c2C(=O)c2ccc([N+](=O)[O-])cc2)CCCC3)cc1
IC50 [2]: 21.4 µM
IC50 [3]: 30.1 µM
IC50 [4]: 16.4 µM
IC50 [5]: 13.1 µM
IC50 [10]: 34.2 µM

Cc1ccc(C#Cc2sc(C)c(C)c2C(=O)c2ccc([N+](=O)[O-])cc2)cc1
IC50 [2]: 40.6 µM
IC50 [3]: > 100 µM
IC50 [4]: 79 µM
IC50 [5]: 26.4 µM
IC50 [10]: 31.4 µM

Cc1ccc(C#Cc2sc3c(c2C(=O)c2ccc(C)cc2)CCCC3)cc1
IC50 [2]: 48.2 µM
IC50 [3]: 27.3 µM
IC50 [4]: 42 µM
IC50 [5]: 30.7 µM
IC50 [10]: 31.5 µM

COc1cc(C(=O)c2c(C#Cc3ccc(C)cc3)sc3c2CCCC3)cc(OC)c1OC
IC50 [2]: 37.5 µM
IC50 [3]: 18.9 µM
IC50 [4]: 21.2 µM
IC50 [5]: 22.5 µM
IC50 [10]: 28.3 µM

Cc1ccc(C(=O)c2c(-c3ccccc3)sc3c2CCCC3)cc1
IC50 [2]: 37.5 µM
IC50 [3]: 32.7 µM
IC50 [4]: 36.4 µM
IC50 [5]: 27 µM
IC50 [10]: 47.6 µM

O=C(c1ccc([N+](=O)[O-])cc1)c1c(-c2ccccc2)sc2c1CCCC2
IC50 [2]: 14.6 µM
IC50 [3]: 24.2 µM
IC50 [4]: 13.2 µM
IC50 [5]: 20.5 µM
IC50 [10]: 28.1 µM

From ChEMBL document CHEMBL3994563 (Medchemcomm, 2016)
